From patent US20130131062A1, “PYRIDAZINONES AND FURAN-CONTAINING COMPOUNDS” (priority 2006, published 2013)
Where two headings read alike, the source gives them in different places. Each block holds one molecule with its values, some of them ahead of it.

Experiments:
[1] = tested on: 15 non small cell lung cancer lines representing various EGFR and KRAS mutations; assay: Dose response studies against 15 NSCLC lines (alamar blue); format: cell-based, human
Procedure: Dose response studies against 34 compounds from the pyridazinone and phenylfuran-carboxamide class were conducted. […] In addition, Tarceva was included in these dose response studies.
The dose response studies were done with the following standard procedure. First, the cells were counted and dispensed at 250 cells/well into 384-well microplates with compound. The cells were incubated for 48 hours at 37 C to complete treatment, and then alamar blue was added for an additional 48 hours. Finally, alamar blue reduction was measured and the data was loaded into ORIS, our data screening acquisition platform.

H2030 = assay: Non Small Cell Lung Cancer Proliferation Assay (Alamar Blue); format: cell-based, human; conditions: for inhibition at 10 µM: Homo sapiens, NCI-H2030
Procedure: (§1) These cells have a doubling time of 1-2 days. All cell types are adherent and grow in colonies. The cells should be kept at a density between 50,000 cells/mL-500,000 cells/mL to provide for optimum growth and adequate nutrition. The cell line should be maintained at 37° C. in a humidified atmosphere with 5% CO2 in a sterile cell culture incubator.
(§2) To perform the assay, the Non Small Cell Lung Cancer lines are diluted in media and plated into 384 well microplates at a final density of 250 cells in 45 μL.
(§3) High Controls for this assay are made by treating Non Small Cell Lung Cancer cells with 5 ul of 10% DMSO. [Final concentration in this assay is 1% DMSO].
(§4) Important Note: All compounds for testing in this assay should be done at the final concentration of 1% DMSO.
(§5) After addition, the cells are placed in cell culture incubator at 37° C. for 48 hours for complete treatment.
(§6) After drug treatment, cytotoxicity is measured by Alamar Blue reduction.
(§7) The cells are incubated for 48 hours at 37° C. to complete the Alamar Blue reduction.
(§8) The final step in the assay is to measure the amount of Alamar Blue reduction. […] The Alamar Blue fluorescence is measured at an excitation of 530 nm and emission of 590 nm.
(§9) For the NSCLC project, the cell based assay was screened against a small molecule library of approximately 200,000 compounds. The compound library is stored in our automated robotic freezer (Biophile) at −20° C. in 100% DMSO. Compound freeze and thaw cycles are kept to a minimum. […] This assay was performed on a fully automated linear track robotic platform (CRS F3 Robot System, Thermo Electron Corp., Ontario, Canada) utilizing several integrated peripherals for plate handling, liquid dispensing, and readout detection. […] The microplates are then placed at 37° C. for 48 hours to complete treatment of cells with compounds. Next, 5 ul of alamar blue was added using a liquid dispenser (FlexDrop Precision Dispenser, Perkin Elmer, Mass., USA) and incubated for 48 hours at 37° C. The alamar blue prompt fluorescence was measured on Victor V (Victor^3 V, Perkin Elmer, Mass., USA) and output data files were loaded into ORIS (Oncology Research Informatics System, MSKCC, NY, USA), a screening data acquisition and analysis platform.

H3255 = assay: as above; format: cell-based, human; conditions: for inhibition at 10 µM: Homo sapiens, NCI-H3255
Procedure: as §1, §2, §3, §4, §5, §6, §7, §8, §9

H1975 = assay: as above; format: cell-based, human; conditions: for inhibition at 10 µM: Homo sapiens, NCI-H1975
Procedure: as §1, with “Non Small Cell Lung Cancer cell lines are grown and maintained in Corning 175 cm2 flasks in RPMI 1640 media supplemented with 10% FBS, 1% antibiotic solution, 1% additional glutamine and pyruvate. These” for “These”
(§10) To perform the assay, the Non Small Cell Lung Cancer lines are diluted in media and plated into 384 well microplates at a final density of 250 cells in 45 μL. To ensure consistency and minimal pipetting error, the cells are plated using the Multidrop 384 with the following settings: Rocker Switch set at 384, Volume 45 and Column 24.
(§11) Low Controls for this assay are made by treating Non Small Cell Lung Cancer cells with 5 ul of staurosporine at 250 uM in 10% DMSO and 1% SDS. [Final concentration in this assay is 25 uM staurosporine in 1% DMSO and 0.1% SDS.]
as §3
(§12) The remaining wells of the 384 microplate may be treated with different compounds depending on the study. Important Note: All compounds for testing in this assay should be done at the final concentration of 1% DMSO.
as §5
(§13) After drug treatment, cytotoxicity is measured by Alamar Blue reduction. 5 μL of Alamar Blue is added to the 384 microplates using the Flexdrop.
as §7, §8
(§14) For the NSCLC project, the cell based assay was screened against a small molecule library of approximately 200,000 compounds. The compound library is stored in our automated robotic freezer (Biophile) at −20° C. in 100% DMSO. Compound freeze and thaw cycles are kept to a minimum. Compounds for use are diluted into the appropriate concentration and plated into 384 well microplates using our custom built low volume 384-well head tool (TPS 384, Apricot Designs Inc., CA, USA). This assay was performed on a fully automated linear track robotic platform (CRS F3 Robot System, Thermo Electron Corp., Ontario, Canada) utilizing several integrated peripherals for plate handling, liquid dispensing, and readout detection. First, non-small cell lung cancer cell lines are dispensed into 384 well microplates (Corning #3712 Tissue Culture Treated Plate, Corning, N.Y., USA) with 5 μL of test compounds at 100 uM in 10% DMSO for screening studies or 1 mM in 10% DMSO to 50 nM in 10% DMSO for dose response studies. The microplates are then placed at 37° C. for 48 hours to complete treatment of cells with compounds. Next, 5 ul of alamar blue was added using a liquid dispenser (FlexDrop Precision Dispenser, Perkin Elmer, Mass., USA) and incubated for 48 hours at 37° C. The alamar blue prompt fluorescence was measured on Victor V (Victor^3 V, Perkin Elmer, Mass., USA) and output data files were loaded into ORIS (Oncology Research Informatics System, MSKCC, NY, USA), a screening data acquisition and analysis platform.

H1650 = assay: as above; format: cell-based, human; conditions: for inhibition at 10 µM: Homo sapiens, NCI-H1650
Procedure: as §1, with “Non Small Cell Lung Cancer cell lines are grown and maintained in Corning 175 cm2 flasks in RPMI 1640 media supplemented with 10% FBS, 1% antibiotic solution, 1% additional glutamine and pyruvate. These” for “These”
as §10, §11, §3, §12, §5, §13, §7, §8, §14

in vitro = conditions: human, NHBE CytoTox (uM)
Procedure: NHBE (normal human bronchiolar epithelial cells) are primary cells obtained from donor lungs and commercially available from Cambrex. The HPLID (human peripheral lung epithelial) cell line has been immortalized with the SV40 large T-antigen. WI-38: human lung fibroblast cell line. HPLID, NHBE and WI-38 cells will serve as controls in the chemical screens. WT: wildtype; WT*: over-expressed wildtype.
Compounds were tested in dose response studies from 10 μM to 5 nM against several non small cell lung cancer lines: H358, H827, H1118, H1650, H1734, H1975, H2030, and H3255, and were also studied in a 72 hour cytotoxicity assay against the NHBE and WI-38 cell lines.

[2] = HPL1D (SV40-immortalized human lung epithelian cells, EGFR WT, KRAS WT), 12 point doubling dilution 10 uM to 5 nM, alamar blue, read-out: IC50 HPL1D
[3] = percentage inhibition, H2030, screening concentration of 10 μM compound in 1% DMSO (v/v), read-out: H2030 PRIMARY HTS [%]
[4] = percentage inhibition, H3255, screening concentration of 10 μM compound in 1% DMSO (v/v), read-out: H3255 PRIMARY HTS [%]
[5] = percentage inhibition, H1975, screening concentration of 10 μM compound in 1% DMSO (v/v), read-out: R1975 PRIMARY HTS [%]
[6] = percentage inhibition, H1650, screening concentration of 10 μM compound in 1% DMSO (v/v), read-out: R1650 PRIMARY HTS [%]
[7] = confirmation, percentage inhibition, 10 μM compound in 1% DMSO (v/v)
[8] = Homo sapiens, read-out: IC50 H23
[9] = Homo sapiens, read-out: IC50 H1118
[10] = Homo sapiens, read-out: IC50 HPL1D
[11] = Homo sapiens, read-out: IC50 PC9
[12] = Homo sapiens, PC9 (EGFR DclE746-A750, KRAS WT), 12 point doubling dilution 10 uM to 5 nM, alamar blue, read-out: IC50 PC9
[13] = primary screening, 10 μM compound in 1% DMSO (v/v), read-out: percentage inhibition H2030
[14] = primary screening, 10 μM compound in 1% DMSO (v/v), read-out: percentage inhibition H3255
[15] = primary screening, 10 μM compound in 1% DMSO (v/v), read-out: percentage inhibition H1975
[16] = primary screening, 10 μM compound in 1% DMSO (v/v), read-out: percentage inhibition H1650
[17] = primary screening, 10 μM compound in 1% DMSO (v/v)
[18] = Homo sapiens, H23 (EGFR WT, KRAS G12C), 12 point doubling dilution 10 uM to 5 nM, alamar blue, read-out: IC50 H23

Compound: Cc1cccc(NC(=O)c2ccc([N+](=O)[O-])o2)c1 [compound 71762]
IC50 [1, 2]: > 10000 nM

Compound: O=C(Nc1ccc(NC(=O)c2ccco2)c(Cl)c1)c1ccccc1 [compound 76839]
inhibition at 10 µM (H2030; [3]): -6%
inhibition at 10 µM (H3255; [4]): 2%
inhibition at 10 µM (H1975; [5]): 3%
inhibition at 10 µM (H1650; [6]): 20%

Compound: O=C(Nc1ccc(F)c(Cl)c1)c1ccc([N+](=O)[O-])o1 [compound 87200]
IC50 [1, 2]: > 10000 nM

Compound: Cc1ccc(NC(=O)c2ccc([N+](=O)[O-])o2)cc1 [compound 98697]
CONFIRMATION [%] 3255 (H3255; [7]): 130%
IC50 [1, 8]: 910 nM
IC50 [1, 9]: 560 nM
IC50 [1, 10]: > 10000 nM
IC50 [1, 11]: 2170 nM

Compound: O=C(Nc1ccc(Cl)cc1)c1ccc([N+](=O)[O-])o1 [compound 98698, 5-nitro-furan-2-carboxylic acid (4-chloro-phenyl)-amide]
CONFIRMATION [%] 2030 (H2030; [7]): 98%
CONFIRMATION [%] 1975 (H1975; [7]): 57%
IC50 [1, 8]: 600 nM
IC50 [1, 9]: 530 nM
IC50 [1, 10]: > 10000 nM
IC50 [1, 11]: 1580 nM

Compound: Cc1cccc(-n2ncc(Cl)c(Cl)c2=O)c1 [compound 104122, 4,5-dichloro-2-m-tolyl-2H-pyridazin-3-one]
IC50 [1, 8]: 210 nM
IC50 [1, 9]: 340 nM
IC50 [1, 10]: 280 nM
IC50 [1, 11]: 650 nM
IC50 at 72 h (in vitro): 3.4 µM

Compound: Cc1cccnc1NC(=O)c1ccc([N+](=O)[O-])o1 [compound 108321]
inhibition at 10 µM (H2030; [3]): 6%
inhibition at 10 µM (H3255; [4]): 2%
inhibition at 10 µM (H1975; [5]): -7%
inhibition at 10 µM (H1650; [6]): 38%

Compound: O=c1c2c(cnn1-c1ccccc1)SC(c1ccccc1)S2 (stereo not drawn) [compound 182826]
inhibition at 10 µM (H2030; [13]): -11%
inhibition at 10 µM (H3255; [14]): -13%
inhibition at 10 µM (H1975; [15]): 12%
inhibition at 10 µM (H1650; [16]): 13%

Compound: N#Cc1ccccc1-n1nc(C(=O)c2cccs2)cc(-c2nc3ccccc3[nH]2)c1=N [compound 186926]
inhibition at 10 µM (H2030; [13]): 2%
inhibition at 10 µM (H3255; [14]): 52%
inhibition at 10 µM (H1975; [15]): 81%
inhibition at 10 µM (H1650; [16]): 27%

Compound: Cc1c(Oc2ccccc2)nnn1-c1cnn(-c2ccccc2)c(=O)c1Br [compound 223337]
percentage inhibition H2030 (H2030; [17]): −14%
percentage inhibition H3255 (H3255; [17]): 61%
percentage inhibition H1975 (H1975; [17]): 5%
percentage inhibition H1650 (H1650; [17]): 13%

Compound: O=c1c(Cl)c(Cl)cnn1-c1ccccc1 [compound 257014]
IC50 [1, 8]: 260 nM
IC50 [1, 9]: 450 nM
IC50 [1, 10]: 380 nM
IC50 [1, 11]: 830 nM

Compound: O=c1c(Br)c(Br)cnn1-c1ccccc1 [compound 257015]
IC50 [1, 2]: 300 nM

Compound: O=c1c(Br)c(Br)cnn1-c1cccc(C(F)(F)F)c1 [compound 267072]
IC50 (H2030; dose response 10 μM to 5 nM): 1420 nM

Compound: O=c1c(Br)c(Br)cnn1-c1ccccn1 [compound 267073]
IC50 [1, 18]: 70 nM
IC50 [1, 12]: 420 nM

Compound: O=c1c(Cl)c(Cl)cnn1-c1ccccn1 [compound 267090]
IC50 ([1]; Homo sapiens, NCI-H820, H820 (EGFR T790M/DelE746-A750, KRAS WT), 12 point doubling dilution 10 uM to 5 nM, alamar blue, read-out: IC50 H820): 410 nM
IC50 [1, 18]: 80 nM

Now from value to molecule, other results behind:

IC50 [1, 12]: 900 nM
Compound: O=c1c(Cl)c(Cl)cnn1-c1cccc(C(F)(F)F)c1 [compound 176729]

IC50 [1, 18]: 320 nM
Compound: Cc1ccc(-n2ncc(Cl)c(Cl)c2=O)cc1 [compound 257016]

IC50 [1, 12]: 1510 nM
Compound: CCc1cccc(-n2ncc(Cl)c(Cl)c2=O)c1 [compound 267062]

IC50 ([1]; H2444 (EGFR WT, KRAS G12V), 12 point doubling dilution 10 uM to 5 nM, alamar blue, read-out: IC50 H2444): 5280 nM
Compound: CCCCc1cccc(-n2ncc(Cl)c(Cl)c2=O)c1 [compound 267063]

IC50 [1, 12]: > 10000 nM
Compound: Cc1cc(-n2ncc(Cl)c(Cl)c2=O)ccc1Br [compound 267064]

IC50 [1, 12]: > 10000 nM
Compound: Cc1cc(-n2ncc(Cl)c(Cl)c2=O)ccc1Cl [compound 267065]

IC50 [1, 12]: > 10000 nM
Compound: Cc1nc2cc(-n3ncc(Cl)c(Cl)c3=O)ccc2s1 [compound 267067]

IC50 [1, 18]: > 10000 nM
IC50 [1, 12]: > 10000 nM
Compound: Cc1ccc(-n2ncc(Cl)c(Cl)c2=O)cc1Cl [compound 267070]
IC50 [1, 2]: > 10000 nM

IC50 (H3255; dose response 10 μM to 5 nM): 1110 nM
IC50 [1, 12]: > 10000 nM
Compound: O=c1c(Cl)c(Cl)cnn1-c1ccc(Cl)cc1Cl [compound 267077]
